Source: publication PMC9867837 (Cancer letters, 2022)

Columns and labels:
[1] = Mouse liver microsome stability; format: in vitro ADME; settings: liver microsomes, read-out: Metabolic Stability MLM t1/2
Description: Solubility, human (HLM) and mouse liver microsomal (MLM), and plasma stability studies were performed by Eurofins Cerep Panlabs and Eurofin Discovery Services (www.eurofins.com/PharmaDiscovery), while protein binding studies were performed by Sanford Burnham Prebys Chemical Biology & Drug Discovery Core using standard protocols.

[2] = molecular target: Stat3 (Homo sapiens, UniProt P40763); assay: Immunofluorescence confocal microscopy of Stat3 localization; format: cell-based; design: endogenous in cells; settings: MDA-MB-231 and MDA-MB-468, 1 or 2 μM H182, 12 h
Description: These studies were performed as previously reported. Details are presented in Supplementary Information, “Methods”.
During confluence of cultured cells, the cell-to-cell adhesion and cadherin engagement trigger increased Tyr705Stat3 phosphorylation in a variety of cell lines. To investigate the impact of cell-to-cell adhesion and cadherin engagement, parallel studies were conducted in which cells in culture were untreated or treated with 1 or 2 μM H182 for 0.5–48 h, and whole-cell lysates prepared and immunoprobed for pTyr705Stat3. […] After 48-h incubation, the cell confluency of the DMSO-treated samples reached to around 60% for MDA-MB-468 cells and 80% for MDA-MB-231 cells. […] In the untreated cells, Stat3 (red punctate) staining was predominantly localized in the nucleus of the tumor cells, with weak presence in the cytoplasm (Fig. 4F, 0, Stat3, red merged with blue DAPI nuclear staining). […] Total Stat3 protein levels in all of these studies were unchanged, and GAPDH, tubulin or β-actin levels show equal protein loading. The percent changes induced by H182 treatment on Stat3 DNA-binding activity and phosphorylation in the treated cells are shown.
These studies were performed as previously reported . […]

Sequence of Stat3 (P40763 whole entry): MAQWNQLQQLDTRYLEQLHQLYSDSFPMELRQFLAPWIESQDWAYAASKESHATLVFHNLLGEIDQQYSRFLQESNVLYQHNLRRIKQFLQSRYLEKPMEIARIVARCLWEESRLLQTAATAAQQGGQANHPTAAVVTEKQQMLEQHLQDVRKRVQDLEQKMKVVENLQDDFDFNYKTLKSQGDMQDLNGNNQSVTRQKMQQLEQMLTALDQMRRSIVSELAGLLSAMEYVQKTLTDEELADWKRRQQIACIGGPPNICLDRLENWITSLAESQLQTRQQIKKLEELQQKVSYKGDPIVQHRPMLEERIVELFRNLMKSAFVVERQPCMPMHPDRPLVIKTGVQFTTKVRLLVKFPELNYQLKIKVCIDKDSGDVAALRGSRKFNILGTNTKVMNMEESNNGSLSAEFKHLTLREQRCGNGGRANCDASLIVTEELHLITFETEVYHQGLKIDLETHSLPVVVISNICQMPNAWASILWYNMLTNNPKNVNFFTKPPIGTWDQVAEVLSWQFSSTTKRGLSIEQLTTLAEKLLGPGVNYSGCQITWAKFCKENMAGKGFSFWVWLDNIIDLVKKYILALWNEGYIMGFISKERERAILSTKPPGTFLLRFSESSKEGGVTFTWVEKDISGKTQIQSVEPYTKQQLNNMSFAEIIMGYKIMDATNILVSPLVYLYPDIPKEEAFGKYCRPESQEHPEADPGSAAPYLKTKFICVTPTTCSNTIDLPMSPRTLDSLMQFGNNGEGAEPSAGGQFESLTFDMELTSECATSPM

For `O=C([C@H]1CCN1S(=O)(=O)c1c(F)c(F)c(F)c(F)c1F)N(Cc1ccc(C2CCCCC2)cn1)c1ccc2c(=O)[nH]ncc2c1` [Compound H182], the half-life [1] was > 2.5 h and the “Effect on intracellular localization of Stat3” value [2] was “decreased nuclear Stat3 staining and Stat3 aggregation at the perinuclear region”.
